# Assay results from ChEMBL document CHEMBL2434936, “Bicyclic and tricyclic heterocycle derivatives as histamine H3 receptor antagonists for the treatment of obesity” (Bioorg Med Chem Lett, 2013).
# Active and inactive are the calls of the source. No cut-off for these calls is given here.
# Tests used:
# Histamine H3 receptor [1] = target: Histamine H3 receptor (Homo sapiens, UniProt Q9Y5N1); test: Displacement of [3H]N-alpha-methylhistamine from human recombinant histamine H3 receptor expressed in HEK cells after 30 mins by scintillation counting analysis; format: cell-based, HEK293
# Mus musculus [2] = test: Ex vivo displacement of [3H]N-alpha-methylhistamine from histamine H3 receptor in mouse cortex at 10 mg/kg, po after 4 hrs by topcount scintillation counting analysis; format: functional
# Cytochrome P450 2C9 = Cytochrome P450 2C9 (Homo sapiens, UniProt P11712); test: Inhibition of CYP2C9 in human liver microsomes; format: ADME, Microsome
# Cytochrome P450 3A4 = Cytochrome P450 3A4 (Homo sapiens, UniProt P08684); test: Inhibition of CYP3A4 in human liver microsomes; format: ADME, Microsome
# Histamine H3 receptor [3] = target: Histamine H3 receptor (Mus musculus, UniProt P58406); test: Displacement of [3H]N-alpha-methylhistamine from mouse histamine H3 receptor after 30 mins by scintillation counting analysis
# Cytochrome P450 2D6 = Cytochrome P450 2D6 (Homo sapiens, UniProt P10635); test: Inhibition of CYP2D6 in human liver microsomes; format: ADME, Microsome
# hERG (KCNH2) = hERG (KCNH2) (Homo sapiens, UniProt Q12809); test: Inhibition of human ERG channel at 5 ug/ml after 30 mins by rubidium efflux assay
# Mus musculus [4] = test: Antiobesity activity in diet-induced obesity mouse model assessed as reduction in body weight at 10 mg/kg, po after 4 days relative to vehicle-treated control; format: functional; details: 96 h
# Mus musculus [5] = test: Ex vivo displacement of [3H]N-alpha-methylhistamine from histamine H3 receptor in mouse cortex at 3 mg/kg, po after 4 hrs by topcount scintillation counting analysis; format: functional
# Mus musculus [6] = test: Antiobesity activity in diet-induced obesity mouse model assessed as reduction in body weight at 3 mg/kg, po after 4 days relative to vehicle-treated control; format: functional; details: 96 h
# Mus musculus [7] = test: Antiobesity activity in diet-induced obesity mouse model assessed as reduction in body weight at 1 mg/kg, po after 4 days relative to vehicle-treated control; format: functional; details: 96 h
# Mus musculus [8] = test: Ex vivo displacement of [3H]N-alpha-methylhistamine from histamine H3 receptor in mouse cortex at 1 mg/kg, po after 4 hrs by topcount scintillation counting analysis; format: functional
# Rattus norvegicus = test: Toxicity in rat assessed as behavioral change at 100 to 300 mg/kg, po by Irwin test; format: organism-based; set-up: dose 100-300 mg/kg, route oral; details: in vivo
# [9] = Plasma concentration in rat at 300 mg/kg, po after 4 hrs by Irwin test; format: ADME, organism-based; set-up: dose 300 mg/kg, route oral
# Mus musculus [10] = organism: Mus musculus; test: Ex vivo receptor occupancy of histamine H3 receptor in mouse brain after 72 hrs by time-course method; format: functional, organism-based
# [11] = Drug uptake in rat brain at 100 mg/kg, po after 4 hrs by Irwin test; format: ADME, organism-based; set-up: dose 100 mg/kg, route oral; details: read-out: Drug uptake
# [12] = Plasma concentration in rat at 100 mg/kg, po after 4 hrs by Irwin test; format: ADME, organism-based; set-up: dose 100 mg/kg, route oral
# [13] = Drug uptake in rat brain at 300 mg/kg, po after 4 hrs by Irwin test; format: ADME, organism-based; set-up: dose 300 mg/kg, route oral; details: read-out: Drug uptake
# Sequence of Cytochrome P450 2D6 (P10635 whole entry): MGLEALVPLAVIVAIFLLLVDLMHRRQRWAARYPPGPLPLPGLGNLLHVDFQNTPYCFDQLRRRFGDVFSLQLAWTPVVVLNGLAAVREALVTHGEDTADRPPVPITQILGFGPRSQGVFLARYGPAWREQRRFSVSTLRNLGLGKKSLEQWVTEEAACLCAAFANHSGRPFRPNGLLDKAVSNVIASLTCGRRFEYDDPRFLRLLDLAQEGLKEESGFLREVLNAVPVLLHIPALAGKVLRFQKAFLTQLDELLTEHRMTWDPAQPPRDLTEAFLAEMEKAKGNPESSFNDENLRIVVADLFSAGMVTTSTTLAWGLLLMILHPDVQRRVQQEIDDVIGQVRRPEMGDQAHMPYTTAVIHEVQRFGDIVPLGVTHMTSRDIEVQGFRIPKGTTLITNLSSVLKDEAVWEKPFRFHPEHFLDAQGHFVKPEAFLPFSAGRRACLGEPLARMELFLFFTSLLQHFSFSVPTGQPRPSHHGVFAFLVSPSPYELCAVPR
# Sequence of Histamine H3 receptor (Homo sapiens, UniProt Q9Y5N1) (Q9Y5N1 whole entry): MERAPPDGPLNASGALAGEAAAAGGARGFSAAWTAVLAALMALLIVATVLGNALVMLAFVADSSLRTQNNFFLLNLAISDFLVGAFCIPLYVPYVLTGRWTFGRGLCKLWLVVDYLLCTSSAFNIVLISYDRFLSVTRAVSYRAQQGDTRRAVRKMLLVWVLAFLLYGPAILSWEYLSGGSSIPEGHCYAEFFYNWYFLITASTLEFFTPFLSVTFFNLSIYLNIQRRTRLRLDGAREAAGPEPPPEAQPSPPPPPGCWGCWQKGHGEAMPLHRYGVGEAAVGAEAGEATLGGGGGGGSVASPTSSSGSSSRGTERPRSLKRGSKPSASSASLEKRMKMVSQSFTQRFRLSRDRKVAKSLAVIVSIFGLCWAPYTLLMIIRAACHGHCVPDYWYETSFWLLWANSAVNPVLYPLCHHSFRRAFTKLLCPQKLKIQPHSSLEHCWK
# Sequence of hERG (KCNH2) (Q12809 whole entry): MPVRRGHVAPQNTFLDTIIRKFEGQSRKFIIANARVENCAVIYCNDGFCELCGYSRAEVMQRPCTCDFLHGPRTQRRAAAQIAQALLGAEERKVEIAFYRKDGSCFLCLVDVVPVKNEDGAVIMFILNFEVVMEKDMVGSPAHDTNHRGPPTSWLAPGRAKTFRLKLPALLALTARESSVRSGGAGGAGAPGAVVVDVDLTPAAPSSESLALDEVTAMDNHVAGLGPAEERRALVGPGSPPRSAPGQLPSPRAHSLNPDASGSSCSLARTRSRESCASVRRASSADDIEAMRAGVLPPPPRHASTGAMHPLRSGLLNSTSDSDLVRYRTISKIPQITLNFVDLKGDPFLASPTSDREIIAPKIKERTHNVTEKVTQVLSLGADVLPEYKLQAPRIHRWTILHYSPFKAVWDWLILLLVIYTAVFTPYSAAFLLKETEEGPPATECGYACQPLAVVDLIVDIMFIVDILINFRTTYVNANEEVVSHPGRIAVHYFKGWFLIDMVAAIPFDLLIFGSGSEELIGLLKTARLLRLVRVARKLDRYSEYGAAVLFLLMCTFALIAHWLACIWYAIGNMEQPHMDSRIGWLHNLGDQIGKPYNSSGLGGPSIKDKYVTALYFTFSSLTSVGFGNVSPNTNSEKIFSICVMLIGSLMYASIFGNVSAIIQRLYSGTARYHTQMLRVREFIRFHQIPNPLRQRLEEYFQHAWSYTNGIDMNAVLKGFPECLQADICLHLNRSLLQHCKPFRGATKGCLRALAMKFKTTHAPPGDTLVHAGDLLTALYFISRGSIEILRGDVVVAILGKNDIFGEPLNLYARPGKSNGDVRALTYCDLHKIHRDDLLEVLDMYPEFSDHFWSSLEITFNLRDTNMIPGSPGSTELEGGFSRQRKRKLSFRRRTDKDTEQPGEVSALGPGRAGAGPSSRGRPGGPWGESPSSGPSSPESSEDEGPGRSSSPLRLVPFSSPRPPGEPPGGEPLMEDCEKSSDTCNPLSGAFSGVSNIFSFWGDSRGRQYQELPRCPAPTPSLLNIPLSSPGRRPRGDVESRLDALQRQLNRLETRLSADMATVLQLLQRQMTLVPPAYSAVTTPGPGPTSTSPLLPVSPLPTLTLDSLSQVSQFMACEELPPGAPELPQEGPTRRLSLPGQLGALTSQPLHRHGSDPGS
# Sequence of Cytochrome P450 3A4 (P08684 whole entry): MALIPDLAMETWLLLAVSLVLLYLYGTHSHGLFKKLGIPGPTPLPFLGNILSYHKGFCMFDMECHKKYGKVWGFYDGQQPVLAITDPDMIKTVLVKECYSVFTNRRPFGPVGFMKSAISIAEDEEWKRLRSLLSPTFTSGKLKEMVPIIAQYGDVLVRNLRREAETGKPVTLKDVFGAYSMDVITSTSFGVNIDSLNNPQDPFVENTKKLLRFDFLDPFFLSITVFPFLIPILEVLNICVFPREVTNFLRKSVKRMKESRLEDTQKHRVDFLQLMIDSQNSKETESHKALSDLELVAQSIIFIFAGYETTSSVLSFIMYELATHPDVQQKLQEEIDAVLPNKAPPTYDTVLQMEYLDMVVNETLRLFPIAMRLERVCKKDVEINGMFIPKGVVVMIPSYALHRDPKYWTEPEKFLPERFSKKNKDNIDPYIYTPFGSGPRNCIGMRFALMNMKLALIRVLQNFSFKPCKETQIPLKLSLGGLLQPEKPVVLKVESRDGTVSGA
# Sequence of Histamine H3 receptor (Mus musculus, UniProt P58406) (P58406 whole entry): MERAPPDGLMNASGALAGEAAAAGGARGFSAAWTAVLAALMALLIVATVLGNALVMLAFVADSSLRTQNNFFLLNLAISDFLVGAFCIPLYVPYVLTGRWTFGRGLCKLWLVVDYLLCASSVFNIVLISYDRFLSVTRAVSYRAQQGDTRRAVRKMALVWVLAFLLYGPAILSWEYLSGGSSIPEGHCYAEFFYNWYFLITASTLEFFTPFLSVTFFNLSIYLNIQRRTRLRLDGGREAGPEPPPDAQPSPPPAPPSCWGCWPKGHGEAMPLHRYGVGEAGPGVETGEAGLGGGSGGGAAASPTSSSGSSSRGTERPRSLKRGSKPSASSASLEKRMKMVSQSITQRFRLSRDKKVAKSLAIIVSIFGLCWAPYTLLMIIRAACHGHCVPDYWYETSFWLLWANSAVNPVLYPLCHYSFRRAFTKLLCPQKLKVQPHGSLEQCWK
# Sequence of Cytochrome P450 2C9 (P11712 whole entry): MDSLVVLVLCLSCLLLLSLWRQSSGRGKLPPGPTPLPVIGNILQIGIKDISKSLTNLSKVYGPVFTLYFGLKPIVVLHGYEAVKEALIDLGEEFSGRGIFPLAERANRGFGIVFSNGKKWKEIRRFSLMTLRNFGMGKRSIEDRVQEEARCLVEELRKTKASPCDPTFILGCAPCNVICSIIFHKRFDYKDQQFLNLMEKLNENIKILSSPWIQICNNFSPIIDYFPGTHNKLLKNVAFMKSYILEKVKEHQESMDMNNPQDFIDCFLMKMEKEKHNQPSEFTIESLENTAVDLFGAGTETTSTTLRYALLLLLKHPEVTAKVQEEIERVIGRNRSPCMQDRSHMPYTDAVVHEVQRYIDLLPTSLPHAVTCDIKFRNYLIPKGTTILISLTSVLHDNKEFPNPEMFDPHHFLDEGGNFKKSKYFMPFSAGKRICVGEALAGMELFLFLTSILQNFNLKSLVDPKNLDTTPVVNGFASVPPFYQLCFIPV
structure (smiles),measurement,setting,value
Cc1nnc2n1-c1sccc1C(=O)N(C1CCN(C(=O)C3(F)CCN(Cc4ccnc(N)c4)CC3)CC1)C2,Ki,Histamine H3 receptor [1],27 nM
same,inhibition in vivo at 10 mg/kg,Mus musculus [2],0%
same,IC50,Cytochrome P450 2C9,> 30000 nM
same,IC50,Cytochrome P450 3A4,> 30000 nM
same,Ki,Histamine H3 receptor [3],70 nM
same,IC50,Cytochrome P450 2D6,> 30000 nM
same,"inhibition at 0.5 h, 5 ug/ml",hERG (KCNH2),6%
Nc1cc(CN2CCC(F)(C(=O)N3CCC(N4Cc5ccccc5-c5ccccc5C4)CC3)CC2)ccn1,Ki,Histamine H3 receptor [1],2 nM
same,inhibition in vivo at 10 mg/kg,Mus musculus [4],65%
same,inhibition in vivo at 3 mg/kg,Mus musculus [5],91%
same,IC50,Cytochrome P450 2C9,> 30000 nM
same,IC50,Cytochrome P450 3A4,18000 nM
same,Ki,Histamine H3 receptor [3],4 nM
same,inhibition in vivo at 3 mg/kg,Mus musculus [6],38%
same,IC50,Cytochrome P450 2D6,300 nM
same,inhibition in vivo at 1 mg/kg,Mus musculus [7],28%
same,"inhibition at 0.5 h, 5 ug/ml",hERG (KCNH2),27%
Nc1cc(CN2CCC(F)(C(=O)N3CCC(N4c5ccccc5Sc5cccnc54)CC3)CC2)ccn1,Ki,Histamine H3 receptor [1],7 nM
same,inhibition in vivo at 10 mg/kg,Mus musculus [2],89%
same,Ki,Histamine H3 receptor [3],26 nM
same,"inhibition at 0.5 h, 5 ug/ml",hERG (KCNH2),54%
N#Cc1ccc2c(c1)CN(C1CCN(C(=O)C3(F)CCN(Cc4ccnc(N)c4)CC3)CC1)CC2,Ki,Histamine H3 receptor [1],2 nM
same,IC50,Cytochrome P450 2C9,> 30000 nM
same,IC50,Cytochrome P450 3A4,> 30000 nM
same,Ki,Histamine H3 receptor [3],2 nM
same,inhibition in vivo at 1 mg/kg,Mus musculus [8],52%
same,IC50,Cytochrome P450 2D6,> 30000 nM
same,"inhibition at 0.5 h, 5 ug/ml",hERG (KCNH2),11%
Nc1cc(CN2CCC(F)(C(=O)N3CCC(N4Cc5ccccc5Cc5ccccc54)CC3)CC2)ccn1,Ki,Histamine H3 receptor [1],4 nM
same,IC50,Cytochrome P450 2C9,4000 nM
same,IC50,Cytochrome P450 3A4,18000 nM
same,Ki,Histamine H3 receptor [3],44 nM
same,IC50,Cytochrome P450 2D6,> 30000 nM
same,"inhibition at 0.5 h, 5 ug/ml",hERG (KCNH2),50%
COc1ccc2c(c1)CN(C1CCN(C(=O)C3(F)CCN(Cc4ccnc(N)c4)CC3)CC1)CCC2,Ki,Histamine H3 receptor [1],2 nM
same,inhibition in vivo at 10 mg/kg,Mus musculus [2],77%
same,IC50,Cytochrome P450 2C9,> 30000 nM
same,IC50,Cytochrome P450 3A4,> 30000 nM
same,Ki,Histamine H3 receptor [3],4 nM
same,IC50,Cytochrome P450 2D6,> 30000 nM
same,"inhibition at 0.5 h, 5 ug/ml",hERG (KCNH2),7%
Nc1cc(CN2CCC(F)(C(=O)N3CCC(N4CCc5ccccc5CC4)CC3)CC2)ccn1,Ki,Histamine H3 receptor [1],1 nM
same,inhibition in vivo at 10 mg/kg,Mus musculus [4],89%
same,Activity,Rattus norvegicus,Non-toxic
same,inhibition in vivo at 10 mg/kg,Mus musculus [2],98%
same,concentration at 4 h,[9],4940 ng/mL
same,IC50,Cytochrome P450 2C9,> 30000 nM
same,IC50,Cytochrome P450 3A4,> 30000 nM
same,Activity,Mus musculus [10],Active
same,Ki,Histamine H3 receptor [3],3 nM
same,concentration at 4 h,[11],13700 ng/g
same,inhibition in vivo at 3 mg/kg,Mus musculus [6],52%
same,IC50,Cytochrome P450 2D6,> 30000 nM
same,inhibition in vivo at 1 mg/kg,Mus musculus [7],38%
same,concentration at 4 h,[12],836 ng/mL
same,"inhibition at 0.5 h, 5 ug/ml",hERG (KCNH2),-2%
same,concentration at 4 h,[13],47100 ng/g
Cn1c2c(c3ccccc31)CCN(C1CCN(C(=O)C3(F)CCN(Cc4ccnc(N)c4)CC3)CC1)CC2,Ki,Histamine H3 receptor [1],15 nM
same,IC50,Cytochrome P450 2C9,> 30000 nM
same,IC50,Cytochrome P450 3A4,> 30000 nM
same,Ki,Histamine H3 receptor [3],46 nM
same,IC50,Cytochrome P450 2D6,> 30000 nM
same,"inhibition at 0.5 h, 5 ug/ml",hERG (KCNH2),21%
Nc1cc(CN2CCC(F)(C(=O)N3CCC(N4Cc5cccnc5C4)CC3)CC2)ccn1,Ki,Histamine H3 receptor [1],7 nM
same,Ki,Histamine H3 receptor [3],15 nM
Nc1cc(CN2CCC(F)(C(=O)N3CCC(N4CCCc5ccccc5C4)CC3)CC2)ccn1,Ki,Histamine H3 receptor [1],36 nM
same,inhibition in vivo at 10 mg/kg,Mus musculus [2],78%
same,IC50,Cytochrome P450 2C9,> 30000 nM
same,IC50,Cytochrome P450 3A4,> 30000 nM
same,Ki,Histamine H3 receptor [3],115 nM
same,IC50,Cytochrome P450 2D6,> 30000 nM
same,"inhibition at 0.5 h, 5 ug/ml",hERG (KCNH2),25%
Cc1nnc2n1-c1sccc1CN(C1CCN(C(=O)C3(F)CCN(Cc4ccnc(N)c4)CC3)CC1)C2,Ki,Histamine H3 receptor [1],1 nM
same,inhibition in vivo at 10 mg/kg,Mus musculus [2],14%
same,IC50,Cytochrome P450 2C9,> 30000 nM
same,IC50,Cytochrome P450 3A4,> 30000 nM
same,Ki,Histamine H3 receptor [3],2 nM
same,IC50,Cytochrome P450 2D6,> 30000 nM
same,"inhibition at 0.5 h, 5 ug/ml",hERG (KCNH2),9%
Nc1cc(CN2CCC(F)(C(=O)N3CCC(N4c5ccccc5Sc5ccc(C(F)(F)F)cc54)CC3)CC2)ccn1,Ki,Histamine H3 receptor [1],11 nM
same,inhibition in vivo at 10 mg/kg,Mus musculus [2],25%
same,Ki,Histamine H3 receptor [3],51 nM
same,"inhibition at 0.5 h, 5 ug/ml",hERG (KCNH2),79%
COc1ccc2c(c1)CCCN(C1CCN(C(=O)C3(F)CCN(Cc4ccnc(N)c4)CC3)CC1)C2,Ki,Histamine H3 receptor [1],1 nM
same,inhibition in vivo at 10 mg/kg,Mus musculus [2],74%
same,IC50,Cytochrome P450 2C9,> 30000 nM
same,IC50,Cytochrome P450 3A4,> 30000 nM
same,Ki,Histamine H3 receptor [3],3 nM
same,IC50,Cytochrome P450 2D6,> 30000 nM
same,"inhibition at 0.5 h, 5 ug/ml",hERG (KCNH2),12%
Nc1cc(CN2CCC(F)(C(=O)N3CCC(N4CCNc5ccccc5C4)CC3)CC2)ccn1,Ki,Histamine H3 receptor [1],1 nM
same,inhibition in vivo at 3 mg/kg,Mus musculus [5],22%
same,IC50,Cytochrome P450 2C9,> 30000 nM
same,IC50,Cytochrome P450 3A4,> 30000 nM
same,Ki,Histamine H3 receptor [3],3 nM
same,IC50,Cytochrome P450 2D6,> 30000 nM
same,"inhibition at 0.5 h, 5 ug/ml",hERG (KCNH2),12%
Nc1cc(CN2CCC(F)(C(=O)N3CCC(N4CCc5ccccc5C4)CC3)CC2)ccn1,Ki,Histamine H3 receptor [1],2 nM
same,IC50,Cytochrome P450 2C9,> 30000 nM
same,IC50,Cytochrome P450 3A4,> 30000 nM
same,Ki,Histamine H3 receptor [3],4 nM
same,inhibition in vivo at 1 mg/kg,Mus musculus [8],73%
same,IC50,Cytochrome P450 2D6,> 30000 nM
same,"inhibition at 0.5 h, 5 ug/ml",hERG (KCNH2),2%
Nc1cc(CN2CCC(F)(C(=O)N3CCC(N4Cc5ccc(F)cc5C4)CC3)CC2)ccn1,Ki,Histamine H3 receptor [1],2 nM
same,inhibition in vivo at 3 mg/kg,Mus musculus [5],94%
same,IC50,Cytochrome P450 2C9,> 30000 nM
same,IC50,Cytochrome P450 3A4,> 30000 nM
same,Ki,Histamine H3 receptor [3],7 nM
same,IC50,Cytochrome P450 2D6,> 30000 nM
same,"inhibition at 0.5 h, 5 ug/ml",hERG (KCNH2),4%
Nc1cc(CN2CCC(F)(C(=O)N3CCC(N4Cc5ccccc5C4)CC3)CC2)ccn1,Ki,Histamine H3 receptor [1],2 nM
same,IC50,Cytochrome P450 2C9,> 30000 nM
same,IC50,Cytochrome P450 3A4,> 30000 nM
same,Ki,Histamine H3 receptor [3],4 nM
same,inhibition in vivo at 1 mg/kg,Mus musculus [8],81%
same,IC50,Cytochrome P450 2D6,> 30000 nM
same,"inhibition at 0.5 h, 5 ug/ml",hERG (KCNH2),-2%
Nc1cc(CN2CCC(F)(C(=O)N3CCC(N4c5ccccc5Sc5ccccc54)CC3)CC2)ccn1,Ki,Histamine H3 receptor [1],7 nM
same,inhibition in vivo at 10 mg/kg,Mus musculus [2],84%
same,IC50,Cytochrome P450 2C9,> 30000 nM
same,IC50,Cytochrome P450 3A4,> 30000 nM
same,Ki,Histamine H3 receptor [3],7 nM
same,IC50,Cytochrome P450 2D6,> 30000 nM
same,"inhibition at 0.5 h, 5 ug/ml",hERG (KCNH2),40%
